Here are results for two compounds from patent US12697326B2, “Methods of treating hepatic encephalopathy” (SALIX PHARMACEUTICALS, INC., priority 2008, dated 2026).

The test system of test [1] is patients with HE. The settings on record: 6-month study; rifaximin 1200 mg/day, neomycin 3 g/day; 14 days on, 14 days off per month; cited from earlier work.
Test [2] concerns liver transplant patients with HE. Nature of the test: Chart review of 39 liver transplant patients with HE Conn scores of 2. The format is in vivo, human. Particulars: 24 lactulose, 15 rifaximin.
Test [3] concerns patients with HE. Nature of the test: Retrospective chart review of 145 patients with HE, lactulose then rifaximin. In kind it is in vivo, human. The source says: Total number of hospitalizations, duration of hospitalizations, HE endpoints, and cost of therapy were compared between the 2 treatment regimens.

For neomycin, in the test on patients with HE [1], the “efficacy in patients with HE, rifaximin versus neomycin” value was “comparable efficacy”.

With `OC[C@H]1O[C@@H](O[C@@H]2[C@@H](CO)OC(O)(CO)[C@H]2O)[C@H](O)[C@@H](O)[C@H]1O` (mixture of isomers) [lactulose], the “hospitalizations reported for the group” value in test [2] is given as “Nineteen”. Further, the “patients with Conn scores of 3 or 4 at end of treatment period” value in the test with patients with HE [3] turned out to be 25%.
